Reference: ChEMBL document CHEMBL5380816, “Inclusion of Nitrofurantoin into the Realm of Cancer Chemotherapy via Biology-Oriented Synthesis and Drug Repurposing” (J Med Chem, 2023)
Active and inactive are the calls of the source. The rule behind the calls is not given here.

How the values were obtained:
Caco-2 [1] = experiment: Induction of apoptosis in human Caco-2 cells assessed as ratio of gene expression activity in pro apoptotic Bax to anti apoptotic Bcl-2; assay type: functional
HeLa [2] = experiment: Anticancer activity against human HeLa cells assessed as absence of normal spindle shape incubated at 0.098uM for 72 hrs by phase contrast inverted microscopic analysis; assay type: functional, cell-based
MCF7 [3] = experiment: Anticancer activity against human MCF7 cells incubated for 72 hrs by MTT assay; assay type: functional, cell-based; settings: MCF7, 72 h
MCF7 [4] = experiment: Induction of apoptosis in human MCF7 cells assessed as increase in Bax expression level relative to nitrofurantoin; assay type: functional
HeLa [5] = experiment: Induction of apoptosis in human HeLa cells assessed as decrease in Bcl-2 expression level incubated for 72 hrs relative to nitrofurantoin; assay type: functional; design: scale not given: the % may be the effect or the level left
HepG2 [6] = experiment: Induction of apoptosis in human HepG2 cells assessed as decrease in Bcl-2 expression level incubated for 72 hrs relative to 5-fluorouracil; assay type: functional; design: scale not given: the % may be the effect or the level left
HeLa [7] = experiment: Induction of apoptosis in human HeLa cells assessed as decrease in Bcl-2 expression level incubated for 72 hrs relative to 5-fluorouracil; assay type: functional; design: scale not given: the % may be the effect or the level left
[8] = target: T1, Tumour suppressor p53/oncoprotein Mdm2 (Homo sapiens, UniProt P04637+Q00987); experiment: Inhibition of human recombinant MDM2/p53 interaction measured after 10 mins by ELISA method; assay type: protein assay
Target sequence in this assay (P04637 whole entry): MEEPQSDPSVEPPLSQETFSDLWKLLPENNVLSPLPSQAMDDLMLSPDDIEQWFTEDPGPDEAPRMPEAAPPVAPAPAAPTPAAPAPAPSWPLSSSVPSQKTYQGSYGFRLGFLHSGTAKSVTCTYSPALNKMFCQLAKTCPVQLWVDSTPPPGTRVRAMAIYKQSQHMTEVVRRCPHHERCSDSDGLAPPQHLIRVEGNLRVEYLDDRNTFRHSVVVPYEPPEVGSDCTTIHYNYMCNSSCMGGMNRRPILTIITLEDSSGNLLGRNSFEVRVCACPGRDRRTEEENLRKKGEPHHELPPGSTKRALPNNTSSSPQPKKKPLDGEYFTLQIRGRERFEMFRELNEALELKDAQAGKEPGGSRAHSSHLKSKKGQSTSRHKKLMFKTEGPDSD
Target sequence in this assay (Q00987 whole entry): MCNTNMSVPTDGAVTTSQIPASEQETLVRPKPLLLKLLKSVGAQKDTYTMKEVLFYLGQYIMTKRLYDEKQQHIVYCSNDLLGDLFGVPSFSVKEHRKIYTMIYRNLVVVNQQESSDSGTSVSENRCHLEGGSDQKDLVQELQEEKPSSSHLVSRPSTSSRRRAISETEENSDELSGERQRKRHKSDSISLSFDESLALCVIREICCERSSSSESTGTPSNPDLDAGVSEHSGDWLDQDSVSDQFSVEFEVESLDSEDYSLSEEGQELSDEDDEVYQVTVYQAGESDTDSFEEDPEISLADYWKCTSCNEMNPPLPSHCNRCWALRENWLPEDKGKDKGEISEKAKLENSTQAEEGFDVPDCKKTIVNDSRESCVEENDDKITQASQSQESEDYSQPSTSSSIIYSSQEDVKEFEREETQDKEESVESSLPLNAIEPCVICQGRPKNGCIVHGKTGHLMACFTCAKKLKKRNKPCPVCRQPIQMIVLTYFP

HeLa [9] = experiment: Induction of apoptosis in human HeLa cells assessed as increase in Bax expression level relative to nitrofurantoin; assay type: functional
Caco-2 [10] = experiment: Induction of apoptosis in human Caco-2 cells assessed as decrease in Bcl-2 expression level incubated for 72 hrs relative to 5-fluorouracil; assay type: functional; design: scale not given: the % may be the effect or the level left
Caco-2 [11] = experiment: Induction of apoptosis in human Caco-2 cells assessed as increase in Bax expression level relative to 5-fluorouracil; assay type: functional
MCF7 [12] = experiment: Induction of apoptosis in human MCF7 cells assessed as decrease in Bcl-2 expression level incubated for 72 hrs relative to nitrofurantoin; assay type: functional; design: scale not given: the % may be the effect or the level left
[13] = Selectivity index, ratio of IC50 for human WI-38 cells to IC50 for human MCF7 cells; assay type: toxicity; settings: WI-38 cells versus MCF7 cells, read-out: Ratio IC50
MCF7 [14] = experiment: Induction of apoptosis in human MCF7 cells assessed as increase in Bax expression level relative to 5-fluorouracil; assay type: functional
Caco-2 [15] = experiment: Anticancer activity against human Caco-2 cells incubated for 72 hrs by MTT assay; assay type: functional, cell-based; settings: Caco-2, 72 h
HeLa [16] = experiment: Induction of apoptosis in human HeLa cells assessed as ratio of gene expression activity in pro apoptotic Bax to anti apoptotic Bcl-2; assay type: functional
[17] = Cytotoxicity in human WI-38 cells assessed as reduction in cell viability incubated for 72 hrs by MTT assay; assay type: toxicity, cell-based
HeLa [18] = experiment: Induction of apoptosis in human HeLa cells assessed as increase in Bax expression level relative to 5-fluorouracil; assay type: functional
HepG2 [19] = experiment: Induction of apoptosis in human HepG2 cells assessed as increase in Bax expression level relative to 5-fluorouracil; assay type: functional
HepG2 [20] = experiment: Induction of apoptosis in human HepG2 cells assessed as ratio of gene expression activity in pro apoptotic Bax to anti apoptotic Bcl-2; assay type: functional
[21] = Cytotoxicity in human WI-38 cells assessed as safe dose incubated for 72 hrs by MTT assay; assay type: toxicity, cell-based; settings: read-out: EC100
HepG2 [22] = experiment: Potency index, ratio of 5-fluorouracil IC50 to test compound IC50 for antiproliferative activity against human HepG2 cells; assay type: functional
HeLa [23] = experiment: Induction of apoptosis in human HeLa cells assessed as increase in Bax expression level relative to control; assay type: functional
MCF7 [24] = experiment: Potency index, ratio of 5-fluorouracil IC50 to test compound IC50 for antiproliferative activity against human MCF7 cells; assay type: functional
MCF7 [25] = experiment: Induction of apoptosis in human MCF7 cells assessed as early apoptotic cells by measuring bright green patch incubated at 0.098 uM for 72 hrs by acridine orange-ethidium bromide dual staining based fluorescence microscopic analysis; assay type: functional, cell-based
[26] = Selectivity index, ratio of IC50 for human WI-38 cells to IC50 for human HepG2 cells; assay type: toxicity; settings: WI-38 cells versus HepG2 cells, read-out: Ratio IC50
Caco-2 [27] = experiment: Induction of apoptosis in human Caco-2 cells assessed as increase in Bax expression level relative to nitrofurantoin; assay type: functional
HeLa [28] = experiment: Anticancer activity against human HeLa cells incubated for 72 hrs by MTT assay; assay type: functional, cell-based
Caco-2 [29] = experiment: Induction of apoptosis in human Caco-2 cells assessed as decrease in Bcl-2 expression level incubated for 72 hrs relative to nitrofurantoin; assay type: functional; design: scale not given: the % may be the effect or the level left
HepG2 [30] = experiment: Anticancer activity against human HepG2 cells assessed as round cells incubated at 0.098uM for 72 hrs by phase contrast inverted microscopic analysis; assay type: functional, cell-based
HepG2 [31] = experiment: Induction of apoptosis in human HepG2 cells assessed as increase in Bax expression level relative to nitrofurantoin; assay type: functional
HepG2 [32] = experiment: Induction of apoptosis in human HepG2 cells assessed as increase in Bax expression level relative to control; assay type: functional
[33] = Selectivity index, ratio of IC50 for human WI-38 cells to IC50 for human HeLa cells; assay type: toxicity; settings: WI-38 cells versus HeLa cells, read-out: Ratio IC50
[34] = Selectivity index, ratio of IC50 for human WI-38 cells to IC50 for human Caco-2 cells
MCF7 [35] = experiment: Induction of apoptosis in human MCF7 cells assessed as decrease in Bcl-2 expression level incubated for 72 hrs relative to 5-fluorouracil; assay type: functional; design: scale not given: the % may be the effect or the level left
MCF7 [36] = experiment: Induction of apoptosis in human MCF7 cells assessed as ratio of gene expression activity in pro apoptotic Bax to anti apoptotic Bcl-2; assay type: functional
HepG2 [37] = experiment: Anticancer activity against human HepG2 cells incubated for 72 hrs by MTT assay; assay type: functional, cell-based; settings: HepG2, 72 h
[38] = target: T1, Tumour suppressor p53/oncoprotein Mdm2; experiment: Potency index, ratio of nitrofurantoin IC50 to compound IC50 for inhibition of human recombinant MDM2/p53 interaction; assay type: protein assay
Target sequence in this assay (P04637 whole entry, looked up): as the sequence (P04637 whole entry) above
Target sequence in this assay (Q00987 whole entry, looked up): as the sequence (Q00987 whole entry) above

HepG2 [39] = experiment: Induction of apoptosis in human HepG2 cells assessed as decrease in Bcl-2 expression level incubated for 72 hrs relative to nitrofurantoin; assay type: functional; design: scale not given: the % may be the effect or the level left
MCF7 [40] = experiment: Anticancer activity against human MCF7 cells assessed as absence of normal spindle shape incubated at 0.097uM for 72 hrs by phase contrast inverted microscopic analysis; assay type: functional, cell-based
HepG2 [41] = experiment: Anticancer activity against human HepG2 cells assessed as round cells incubated at 0.097uM for 72 hrs by phase contrast inverted microscopic analysis; assay type: functional, cell-based
Caco-2 [42] = experiment: Induction of apoptosis in human Caco-2 cells assessed as early apoptotic cells by measuring bright green patch incubated at 0.11 uM for 72 hrs by acridine orange-ethidium bromide dual staining based fluorescence microscopic analysis; assay type: functional, cell-based
MCF7 [43] = experiment: Antitumor activity against human MCF7 cells xenografted in immunocompromised BALB/c mouse model assessed as decrease in tumor maas administered at 50 mg/kg, ip for 21 days relative to control; assay type: functional; design: scale not given: the % may be the effect or the level left; settings: time 21 day
HeLa [44] = experiment: Anticancer activity against human HeLa cells assessed as cell shrinkage incubated at 0.11 uM for 72 hrs by phase contrast inverted microscopic analysis; assay type: functional, cell-based
MCF7 [45] = experiment: Antitumor activity against human MCF7 cells xenografted in immunocompromised BALB/c mouse model assessed as tumor size reduction administered at 50 mg/kg, ip for 21 days; assay type: functional, organism-based; settings: time 21.0 day

SMILES	Ratio (Caco-2 [1])	IC50 (MCF7 [3]) [nM]	Activity (MCF7 [4]) [%]	Activity (HeLa [5]) [%]	Activity (HepG2 [6]) [%]	Activity (HeLa [7]) [%]	IC50 [8] [nM]	Activity (HeLa [9]) [%]	selectivity ratio [13]	IC50 (Caco-2 [15]) [nM]	Ratio (HeLa [16])	IC50 at 72 h [17] [nM]	Ratio (HepG2 [20])	MNTC at 72 h [21] [nM]	selectivity ratio [26]	IC50 (HeLa [28]) [nM]	selectivity ratio [33]	Ratio IC50 [34]	Ratio (MCF7 [36])	IC50 (HepG2 [37]) [nM]	further results
O=C(CN1C(=O)CN(/N=C/c2ccc([N+](=O)[O-])o2)C1=O)c1ccc(Cl)cc1	3.396	117	70	30	30	30	670	70	2.14	134	11.09	251	4.215	98	2.29	62	4.04	1.87	5.104	110	Activity (HeLa [2]): Active; Activity (Caco-2 [10]): 30%; Activity (Caco-2 [11]): 70%; Activity (MCF7 [12]): 30%; Activity (MCF7 [14]): 70%; Activity (HeLa [18]): 70%; Activity (HepG2 [19]): 70%; Ratio IC50 (HepG2 [22]): 1.6; Activity (HeLa [23]): 300%; Ratio IC50 (MCF7 [24]): 1.2; Activity (MCF7 [25]): Active; Activity (Caco-2 [27]): 70%; Activity (Caco-2 [29]): 30%; Activity (HepG2 [30]): Active; Activity (HepG2 [31]): 70%; Activity (HepG2 [32]): 300%; Activity (MCF7 [35]): 30%; Ratio IC50 [38]: 2.4; Activity (HepG2 [39]): 30%
NS(=O)(=O)c1ccc(-n2cc(CN3C(=O)CN(/N=C/c4ccc([N+](=O)[O-])o4)C3=O)nn2)cc1	7.328	74	70	30	30	30	410	70	3.36	80	6.36	249	2.326	97	0.807	81	3.08	3.14	10.4	309	Activity (Caco-2 [10]): 30%; Activity (Caco-2 [11]): 70%; Activity (MCF7 [12]): 30%; Activity (MCF7 [14]): 70%; Activity (HeLa [18]): 70%; Activity (HepG2 [19]): 70%; Ratio IC50 (MCF7 [24]): 1.2; Activity (Caco-2 [27]): 70%; Activity (MCF7 [40]): Active; Activity (Caco-2 [29]): 30%; Activity (HepG2 [31]): 70%; Activity (MCF7 [35]): 30%; Activity (HepG2 [41]): Active; Ratio IC50 [38]: 3.6; Activity (HepG2 [39]): 30%
C#CCN1C(=O)CN(/N=C/c2ccc([N+](=O)[O-])o2)C1=O	5.278	111	70	30	30	30	590	70	2.79	99	3.004	306	11.74	110	3.46	265	1.16	3.13	4.453	89	Activity (Caco-2 [42]): Active; Activity (Caco-2 [10]): 30%; Activity (Caco-2 [11]): 70%; Activity (MCF7 [12]): 30%; Activity (MCF7 [14]): 70%; Activity (HeLa [18]): 70%; Activity (HepG2 [19]): 70%; Activity (MCF7 [43]): ~65%; Ratio IC50 (HepG2 [22]): 1.2; Activity (HeLa [23]): 300%; Ratio IC50 (MCF7 [24]): 1.2; Activity (Caco-2 [27]): 70%; Activity (HeLa [44]): Active; Activity (Caco-2 [29]): 30%; Activity (HepG2 [31]): 70%; Activity (HepG2 [32]): 300%; Activity (MCF7 [35]): 30%; Activity (MCF7 [45]): Active; Ratio IC50 [38]: 2.7; Activity (HepG2 [39]): 30%
O=c1[nH]cc(F)c(=O)[nH]1 [FLUOROURACIL]	1.187	235	–	–	–	–	–	–	0.865	266	1.257	192	1.247	17	1.13	199	1.02	0.76	1.246	178	Activity (MCF7 [43]): ~65%; Activity (MCF7 [45]): Active
